Assay results as given in paper PMC7663056, “Crystal Structure and Inhibitor Identifications Reveal Targeting Opportunity for the Atypical MAPK Kinase ERK3” (International Journal of Molecular Sciences, 2020).
Where two headings read alike, the source gives them in different places.

Legend:
ERK3 kinase domain [1] = molecular target: T1, ERK3 kinase domain (Homo sapiens, UniProt Q16659); assay: Melting temperature assay (differential scanning fluorimetry, DSF); format: binding; conditions: for ΔTm (melting temperature shift): DSF screen of 1454 kinase inhibitors
T1 construct: The kinase domain of ERK3 (M9-I327) was subcloned into pNIC28–Bsa4; His6 (N, cleaved yes); made in house; host or cells: E. coli (co-expressed with lambda phosphatase)
T1 sequence (Q16659 9-327): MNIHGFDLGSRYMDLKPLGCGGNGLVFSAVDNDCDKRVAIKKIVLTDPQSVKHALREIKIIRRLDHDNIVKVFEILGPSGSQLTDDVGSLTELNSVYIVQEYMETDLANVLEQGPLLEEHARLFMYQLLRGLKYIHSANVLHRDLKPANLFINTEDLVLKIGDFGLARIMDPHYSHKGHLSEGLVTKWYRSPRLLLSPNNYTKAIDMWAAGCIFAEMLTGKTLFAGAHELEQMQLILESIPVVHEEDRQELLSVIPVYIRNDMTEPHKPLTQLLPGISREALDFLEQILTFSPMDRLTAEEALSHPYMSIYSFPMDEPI
Method: The ERK3 kinase domain at 2 µM in 10 mM HEPES pH 7.5 and 500 mM NaCl was mixed with 10 µM inhibitors and SyPRO Orange at 1:1000 dilution. After 10 min incubation at room temperature, the fluorescence signal, which increases upon the temperature-dependent unfolding of ERK3 protein, was measured using Mx3005p real-time PCR machine (Stratagene, San Diego, CA, USA). The ∆Tm shifts were calculated using protocol described previously.

[2] = molecular target: T2, Full length ERK3 (NanoLuc fusion) (Homo sapiens, UniProt Q16659); assay: Cell-based NanoBRET assay (tracer displacement) in HEK293T cells; conditions: for IC50: Figure 2F, HEK293T cells, 0.25 µM Tracer K5, 2 h, averaged over two replicates; for remaining activity at 5 µM / remaining activity at 10 µM: HEK-293T, 2 h, Table S3, ratio to DMSO control; for remaining activity at 5 µM: single dose 5 µM, read-out: Norm.BRET 5 µM; for remaining activity at 10 µM: single dose 10 µM, read-out: Norm.BRET 10 µM
T2 construct: Full length ERK3 was cloned into pFC32K (Promega, Madison, WI, USA); expressed in transfected cells; host or cells: HEK293T
T2 sequence (Q16659 whole entry, the tested form may be a part): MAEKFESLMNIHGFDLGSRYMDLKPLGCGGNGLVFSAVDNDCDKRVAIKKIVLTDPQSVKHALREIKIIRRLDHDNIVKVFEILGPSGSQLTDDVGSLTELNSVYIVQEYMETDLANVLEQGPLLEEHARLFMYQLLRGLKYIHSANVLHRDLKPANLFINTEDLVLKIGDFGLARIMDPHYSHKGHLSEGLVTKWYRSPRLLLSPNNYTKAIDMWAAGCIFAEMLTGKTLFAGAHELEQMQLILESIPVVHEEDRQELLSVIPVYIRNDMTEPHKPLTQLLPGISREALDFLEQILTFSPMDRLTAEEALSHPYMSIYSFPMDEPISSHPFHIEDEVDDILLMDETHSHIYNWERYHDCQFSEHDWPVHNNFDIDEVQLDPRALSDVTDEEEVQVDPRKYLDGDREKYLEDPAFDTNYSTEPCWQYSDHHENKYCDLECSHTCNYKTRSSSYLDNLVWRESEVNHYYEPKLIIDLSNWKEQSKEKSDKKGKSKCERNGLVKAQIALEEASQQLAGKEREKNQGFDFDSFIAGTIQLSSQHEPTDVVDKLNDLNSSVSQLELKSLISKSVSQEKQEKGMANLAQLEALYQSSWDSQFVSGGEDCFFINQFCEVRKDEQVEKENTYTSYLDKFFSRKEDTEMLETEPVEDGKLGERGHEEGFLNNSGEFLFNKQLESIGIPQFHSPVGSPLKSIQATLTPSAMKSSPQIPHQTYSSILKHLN
Method: Full length ERK3 was cloned into pFC32K (Promega, Madison, WI, USA) for the expression of an […] NanoLuc fusion, and the plasmid was transfected into HEK293T cells cultured in DMEM (Gibco) supplemented with 10% fetal bovine serum (Gibco) and penicillin/streptamycin (Gibco, Thermo Fisher Scientific, Waltham, MA, USA). NanoBRET assays were performed using protocol published previously. Briefly, after transfection and 20 h incubation, cells were harvested and subsequently resuspended in OptiMEM (Gibco). […] BRET luminescence (450 nm for donor emission and 610 nm for BRET signal) was measured using PHERAstar FSX plate reader (BMG Labtech, Ortenberg, Germany). Milli-BRET units (mBU) were calculated as a ratio between the BRET signal and the overall measured luminescence. A dose–response fitting was applied, and the corresponding IC50 values were calculated in Prism software. For the single concentration screening, the normalized BRET values were calculated from the ratio between the BRET signals of the tested inhibitor and that of the DMSO control.

ERK3 kinase domain [3] = molecular target: T1, ERK3 kinase domain; assay: Isothermal titration calorimetry (ITC); format: binding; conditions: for Kd: Figure 2E, 15 °C, averaged over two replicates, read-out: ITC dissociation constant Kd
Method: The integrated heat of titration was calculated and fitted into an independent binding model using NanoAnalyzer software. Thermodynamic parameters, the dissociation constant (Kd), and stoichiometry (n) were an average over duplicates.

ERK3 kinase domain [4] = molecular target: T1, ERK3 kinase domain; assay: Mass spectrometry analyses of covalent adducts (intact mass, chymotrypsin digestion); format: binding; conditions: kinase and inhibitor at 1:1 ratio, 30 min, room temperature
Method: The protein was purified using C8 stage tips, and the intact mass was analysed using LC-ESI TOF (Agilient, Santa Clara, CA, USA) and Bioconfirm software (Agilient). Chymotrypsin digestion followed by mass spectrometry analysis was performed to identify the residue that forms a covalent bond with the inhibitors. […] The protein was subsequently precipitated by 50% […], and the resulting pellet was washed twice with cold acetone. Chymotrypsin (Sigma Aldrich) digestion was performed in 50 mM (NH4)2CO3 overnight at 37 °C. The solution after proteolysis were spotted in quadruplets onto the 4-chloro-α-cyanocinnamic acid matrix (Sigma Aldrich; 3 mg mL^−1 in TFA-acidified 50% acetonitrile), and the m/z ratios were analysed on a Thermo Fisher MALDI-LTQ Orbitrap XL spectrometer.

[5] = Table S3, DSF assay values shown for comparison, read-out: ΔTm ERK3
[6] = Table S2, 10 µM inhibitors, read-out: ΔTm Initial Screen
[7] = Table S2, average of two repeats ± standard deviation, read-out: ΔTm Follow Up

Row | Compound | ΔTm at 10 µM (ERK3 kinase domain [1]; [5]) [°C] | remaining activity at 5 µM ([2]; HEK293T) [%] | remaining activity at 10 µM ([2]; HEK293T) [%] | ΔTm at 10 µM (ERK3 kinase domain [1]; [6]) [°C] | ΔTm at 10 µM (ERK3 kinase domain [1]; [7]) [°C] | other results
1 | CCN1CCN(Cc2ccc(-c3cc4c(N[C@H](C)c5ccccc5)ncnc4[nH]3)cc2)CC1 [AEE788] | 0.4 ± 0.3 | 40 ± 1.6 | 38.8 ± 3.1 |  |  | IC50 [2]: 145 ± 45 nM
2 | COc1cc2ncnc(Nc3cccc(Cl)c3)c2cc1OC [AG-1478] | 0.06 | 73.5 ± 1.1 | 41.7 |  |  | 
3 | O=C(Nc1c[nH]nc1-c1nc2ccc(CN3CCOCC3)cc2[nH]1)NC1CC1 [AT9283] |  | 16.1 ± 3.9 | 10.6 ± 1.5 | 3.08 | 3.1 ± 0.1 | ITC dissociation constant (Kd), in words (ERK3 kinase domain [3]): low nanomolar affinities; Kd (ERK3 kinase domain [3]): 80 ± 5 nM; ΔTm (melting temperature shift) (ERK3 kinase domain [1]): 3.1–3.8 °C; IC50 [2]: 15 ± 7 nM
4 | Cc1ncc(-c2ccnc(Nc3ccc(S(C)(=O)=O)cc3)n2)n1C(C)C [AZD5438] | -0.17 | 93.3 ± 4 | 61.7 ± 2.2 |  |  | 
5 | CC(C)CCN1c2nc(Nc3cc(F)c(O)c(F)c3)ncc2N(C)C(=O)C1C (stereo not shown) [BI-D1870] | 0.02 | 80.6 ± 6.7 | 49.4 ± 1.1 |  |  | 
6 | O=C(Nc1cccc(Nc2ncc(Br)c(NCCc3cnc[nH]3)n2)c1)N1CCCC1 [BX-912] | -0.12 | 74.1 ± 1.5 | 53.2 ± 1.7 |  |  | 
7 | O=C(/C=C/c1ccc(O)c(O)c1)c1ccc(O)cc1O [Butein] |  |  |  | 1.15 |  | 
8 | CN1CCN(c2ccc(Nc3nccc(-c4cnn5ncccc45)n3)cc2)CC1 [CAF045] |  |  |  |  |  | ΔTm at 10 µM (ERK3 kinase domain [1]; read-out: ΔTm Follow Up): 1.4 ± 0.5 °C; ΔTm at 10 µM (ERK3 kinase domain [1]; read-out: ΔTm Initial Screen): 1.61 °C
9 | CN1CCN(c2ccc(Nc3nccc(-c4cnn5ncccc45)n3)cc2F)CC1 [CAF052] |  |  |  | 2.81 | 2.5 ± 0.3 | IC50 [2]: 20 ± 13 nM
10 | CN1CCN(c2ccc(Nc3nccc(-c4cnn5ncccc45)n3)cc2C#N)CC1 [CAF078] |  |  |  | 3.83 | 3.3 ± 0.2 | ITC dissociation constant (Kd), in words (ERK3 kinase domain [3]): low nanomolar affinities; Kd (ERK3 kinase domain [3]): 44 ± 26 nM; ΔTm (melting temperature shift) (ERK3 kinase domain [1]): 3.1–3.8 °C; IC50 [2]: 9 ± 1 nM
11 | O=C(Nc1ccc(Nc2nccc(Nc3cc(C4CCCC4)[nH]n3)n2)cc1)Nc1cccc(C(F)(F)F)c1 [CD532] |  |  |  | 1.7 | 1 ± 0.1 | 
12 | O=C(NC(NC(=S)Nc1ccc(F)c([N+](=O)[O-])c1)C(Cl)(Cl)Cl)C(c1ccccc1)c1ccccc1 (stereo not shown) [CGK733] |  |  |  | 1.17 |  | 
13 | C=CC(=O)Nc1cccc(Nc2nc(Nc3ccc(Oc4ccnc(C(=O)NC)c4)cc3)ncc2F)c1 [CNX-774] |  |  |  | 1.04 |  | 
14 | Cc1nc(N)sc1-c1ccnc(Nc2ccc(N3CCOCC3)cc2)n1 [CYC116] | 0.26 | 64.9 ± 3.8 | 52.9 ± 2.8 |  |  | 
15 | C=CC(=O)Nc1cc2c(Nc3ccc(F)c(Cl)c3)ncnc2cc1OCCCN1CCOCC1 [Canertinib] |  |  |  | 2.05 | 3.1 ± 0.3 | 
16 | Cc1cc(Nc2cc(N3CCN(C)CC3)nc(/C=C/c3ccccc3)n2)n[nH]1 [ENMD-2076] | -0.15 | 90.8 ± 3 | 58.5 ± 0.4 |  |  | 
17 | CCn1cc(-c2ccnc3[nH]c(-c4cccc(CN(C)C)c4)cc23)c(-c2ccc(NC(=O)N(C)C)cc2)n1 [GSK1070916] |  | 56.8 ± 2.8 | 31.3 ± 0.1 | 1.45 | 0.1 ± 0.3 | IC50, cell-based NanoBRET assay ([2]; HEK293T): did not produce a BRET signal
18 | CCCN1CCC(c2ccc(Nc3nc(Nc4cc(F)ccc4C(N)=O)c4cc[nH]c4n3)c(OC)c2)CC1 [GSK1326255A] |  |  |  | 1.12 | -0.3 ± 0.3 | 
19 | O=C1Nc2ccc(I)cc2C1=Cc1cc(Br)c(O)c(Br)c1 [GW5074] |  |  |  |  |  | ΔTm at 10 µM (ERK3 kinase domain [1]; read-out: ΔTm Initial Screen): 1.36 °C
20 | NS(=O)(=O)c1ccc(N/N=C2\C(=O)Nc3ccc4ncccc4c32)cc1 [GW305178X] |  |  |  | 1.04 | 1.1 ± 0.2 | 

Row | Compound | ΔTm at 10 µM (ERK3 kinase domain [1]; [5]) [°C] | remaining activity at 5 µM ([2]; HEK293T) [%] | remaining activity at 10 µM ([2]; HEK293T) [%] | ΔTm at 10 µM (ERK3 kinase domain [1]; [6]) [°C] | ΔTm at 10 µM (ERK3 kinase domain [1]; [7]) [°C] | other results
21 | CS(=O)(=O)CCNCc1ccc(-c2ccc3ncnc(Nc4ccc(OCc5ccccc5)c(Br)c4)c3c2)o1 [GW580496A] |  |  |  | 1.04 | 0.8 ± 0.4 | 
22 | COc1cccc(-n2ncc3c(N/N=C/c4ccc(C(=O)NCCN(C)C)cc4)ncnc32)c1 [GW784307A] |  |  |  |  |  | ΔTm at 10 µM (ERK3 kinase domain [1]; read-out: ΔTm Initial Screen): 1.3 °C
23 | COc1cccc(-c2c[nH]c3c(N/N=C/c4ccncc4)ncnc23)c1 [GW814408X] |  |  |  | 2.55 | 2.5 ± 0.2 | 
24 | O=C(c1ccc(Nc2nccc(-c3cc4ccccc4s3)n2)cc1)N1CCC(N2CCCC2)CC1 [IKK-16] |  | 28.8 ± 2.4 | 19.6 ± 5.7 | 1.67 | 1.7 ± 0.4 | Kd (ERK3 kinase domain [3]): 1850 ± 915 nM; IC50 [2]: 116 ± 26 nM
25 | O=C(Nc1cc(C(F)(F)F)cc(C(F)(F)F)c1)c1cc(Cl)ccc1O [IMD0354] |  |  |  |  |  | ΔTm at 10 µM (ERK3 kinase domain [1]; read-out: ΔTm Initial Screen): 1.21 °C
26 | Oc1ccc2ccccc2c1SSc1c(O)ccc2ccccc12 [IPA-3] | -3.92 ± 0.3 | 67.8 ± 10.6 | 45.5 ± 4.2 |  |  | 
27 | Nc1nc(Nc2ccc(S(N)(=O)=O)cc2)nn1C(=O)c1c(F)cccc1F [JNJ-7706621] | 0.2 ± 0.1 | 23.1 ± 0.1 | 17 ± 0.1 |  |  | 
28 | CN(C)C/C=C/C(=O)Nc1cccc(C(=O)Nc2ccc(Nc3nccc(-c4cccnc4)n3)cc2)c1 [JNK-IN-7] |  |  |  |  |  | covalent adduct formation (intact mass shift) (ERK3 kinase domain [4]): covalent formation, albeit only partially; IC50 [2]: 112 ± 23 nM
29 | CNC(=O)c1nn(C)c2c1C(C)(C)Cc1cnc(Nc3ccc(N4CCN(C)CC4)cc3)nc1-2 [Milciclib] |  | 40.9 | 26.8 ± 0.5 | 2.11 | 2.5 ± 0.3 | Kd (ERK3 kinase domain [3]): 245 ± 60 nM; IC50 [2]: 27 ± 5 nM
30 | CN(c1ncccc1CNc1nc(Nc2ccc3c(c2)CC(=O)N3)ncc1C(F)(F)F)S(C)(=O)=O [PF-00562271] | -0.09 | 76.8 ± 9.4 | 49.5 ± 4.6 |  |  | 
31 | NC(=O)c1cnc(N[C@@H]2CCCC[C@@H]2N)nc1Nc1cccc(-n2nccn2)c1 [PRT062607] | 0.51 | 88.2 ± 10.3 | 60.1 ± 16.9 |  |  | 
32 | CC(C)(C)c1cc(NC(=O)Nc2ccc(-c3cn4c(n3)sc3cc(OCCN5CCOCC5)ccc34)cc2)no1 [Quizartinib] |  |  |  |  |  | ΔTm Initial Screen (ERK3 kinase domain [1]; Table S2, 10 µM inhibitors): 1.12 °C
33 | Fc1ccc(-c2ncn(C3CCNCC3)c2-c2ccnc(Oc3ccc4c(c3)OCO4)n2)cc1 [SB-250715] |  |  |  | 1.1 |  | 
34 | CC(C)(C)c1cnc(CSc2cnc(NC(=O)C3CCNCC3)s2)o1 [SNS-032] | 0.15 | 71.7 ± 7.8 | 49.8 ± 4.1 |  |  | 
35 | CNC(=O)c1cc(Oc2ccc(NC(=O)Nc3ccc(Cl)c(C(F)(F)F)c3)cc2)ccn1 [Sorafenib] |  |  |  |  |  | ΔTm at 10 µM (ERK3 kinase domain [1]; read-out: ΔTm Follow Up): 0 °C; ΔTm at 10 µM (ERK3 kinase domain [1]; read-out: ΔTm Initial Screen): 1.2 °C
36 | Cc1cnc(Nc2ccc(N3CCN(C)CC3)cc2)nc1Nc1cccc(S(=O)(=O)NC(C)(C)C)c1 [TG101209] | 0.3 ± 0.2 | 46.6 ± 2.2 | 36.9 ± 0.7 |  |  | IC50 [2]: 1540 ± 214 nM
37 | Nc1cccc(-c2cc3c(Oc4cccc(O)c4)ncnc3[nH]2)c1 [TWS119] | 0.6 ± 0.2 | 54.2 ± 6.4 | 28.1 ± 5.5 |  |  | Kd (ERK3 kinase domain [3]): 1930 ± 182 nM; IC50 [2]: 601 ± 29 nM
38 | COc1cc2ncnc(Nc3ccc(O)c(Br)c3)c2cc1OC [WHI-P154] | -0.1 ± 0.2 | 50.8 ± 4.5 | 36.2 ± 6.3 |  |  | IC50 [2]: 540 ± 129 nM
39 | COc1ccc(Cl)c(Nc2nc3ccccc3nc2NS(=O)(=O)c2cccc(NC(=O)C(C)(C)N)c2)c1 [XL147] |  |  |  | 1.96 | 1.2 ± 0.6 | 
